Patent US20210284742A1, “METHODS OF TREATING OR PREVENTING MUCORMYCOSIS” (University of Maryland, Baltimore, priority 2018, published 2021)

Assays:
[1] = test system: HUVECs infected with R. delemar; settings: inhibition of PDGFR phosphorylation; cited from earlier work
[2] = test system: A549 cells infected with R. delemar; assay: R. delemar-induced A549 cell damage (Pierce LDH assay); format: cell-based, human; settings: for R. delemar-induced damage of A549 alveolar epithelial cells (LDH assay): pre-treated 1 h, inhibitors present throughout, Inh III 10, AG1478 10 μM, AG825 50 μM, 24 h infection (FIG. 6)
Procedure: Measurement of R. delemar-induced host cell damage. R. delemar-induced A549 cell damage was quantified using the Pierce LDH Assay with slight modifications to the manufacturer's protocol. Briefly, A549 cells were grown in 96-well tissue culture plates for 18-24 hours. […] For controls, host cells will be incubated with DMSO (the solvent used to reconstitute the inhibitor) or 25 μg/ml of mouse IgG antibody in parallel. After 24 hours of incubation at 37° C., 50 μl of the cell culture supernatant was collected from uninfected, infected, and fungi-only control wells and transferred to a 96 well plate to assay for LDH activity. Lysis buffer was added to all infected wells and incubated for 45 min at 37° C. After lysis, 50 μl of cell culture supernatant was transferred to a 96 well plate and used for the LDH Assay Kit per protocol. LDH release was calculated as follows: % Cytotoxicity=[Experimental release−Fungal Cells Spontaneous Control−Host Cells Spontaneous Control]/[Host Cell Maximum Control−Fungal Cells Maximum Control−Host Cells Spontaneous Control]×100. LDH is a cytosolic enzyme but will be released into the cell culture medium upon cell membrane damage. The amount of extracellular LDH is proportional to the amount of cell damage.
(§1) R. delemar-induced A549 cell damage was quantified using the Pierce LDH assay, with slight modifications to the manufacturer's protocol. Briefly, A549 cells were grown in 96-well tissue culture plates for 18 to 24 h. Cells were then pretreated for 1 h with inhibitor and infected with 1×10^6-2×10^6 germlings suspended in 150 μl F-12K plus 10% FBS. For controls, host cells were incubated with the appropriate amount of diluent used to reconstitute the in parallel. After 24 h of incubation at 37° C., 50 μl of the cell culture supernatant was collected from uninfected, infected, and fungus-only control wells and transferred to a 96-well plate to assay for LDH activity. Lysis buffer was added to all infected wells, and the mixture was incubated for 45 min at 37° C. After lysis, 50 μl of cell culture supernatant was transferred to a 96-well plate and used for the LDH assay kit per the protocol. LDH release was calculated as follows: % cytotoxicity=[(experimental release−fungal cell spontaneous control−host cell spontaneous control)/(host cell maximum control−fungal cell maximum control−host cell spontaneous control)]×100. LDH is a cytosolic enzyme but will be released into the cell culture medium upon cell membrane damage. The amount of extracellular LDH is proportional to the amount of cell damage.

[3] = test system: R. delemar; assay: Neutropenic mouse model of pulmonary mucormycosis, survival; format: in vivo, mice
Procedure: Murine models of Mucormycosis. Male ICR mice (20-25 g from Envigo) were immunosuppresed by cyclophosphamide (200 mg/kg administered intraperotenually [i.p]) and cortisone acetate (500 mg/kg, adminstered subcutaneously) given on days −2, +3, and +9 relative to infection. […] To control for bacterial infection, immunosuppressed mice received 50 mg/L Baytrial (enrofloxacin: Bayer, Leverkusen, Germany) ad libitum on Day −3 thorough Day 0, after which Baytril was replaced with daily ceftazidime (5 mg/mouse) treatment adminstered subcutaneously through day+13 days post infection. Mice were infected with 2.5×10^5 spores of R. delemar 99-880 in 25 μL PBS given intratracheally as previously described (Luo G, Gebremariam T, Lee H, French S W, Wiederhold N P, Patterson T F, Filler S G, Ibrahim A S. 2013. Efficacy of liposomal amphotericin B and posaconazole in intratracheal models of murine mucormycosis. Antimicrobial agents and chemotherapy 57:3340-7). […] Placebo mice received DMA:PEG300. Survival of mice served as the primary endpoint with moribund mice humanely euthanized. To determine effect of treatment on tissue fungal burden mice were immunosuppressed and infected as above. Gefitinib treatment started 4 post infection and continued through Day +3. On Day +4, mice were sacrificed and lungs and brains, representing primary and secondary target organs (Luo G, Gebremariam T, Lee H, French S W, Wiederhold N P, Patterson T F, Filler S G, Ibrahim A S. 2013. Efficacy of liposomal amphotericin B and posaconazole in intratracheal models of murine mucormycosis. Antimicrobial agents and chemotherapy 57:3340-7), were collected and processed for tissue fungal burden by qPCR (Ibrahim A S, Bowman J C, Avanessian V, Brown K, Spellberg B, Edwards J E, Jr., Douglas C M. 2005. Caspofungin inhibits Rhizopus oryzae 1,3-beta-D-glucan synthase, lowers burden in brain measured by quantitative PCR, and improves survival at a low but not a high dose during murine disseminated zygomycosis. Antimicrobial agents and chemotherapy 49:721-7.) Values are expressed as Log10 spore equivalents per gram tissue.
Statistical Analyses. In vitro experiments were performed in triplicate on two or three separate days. Data were expressed as median±interquartile range. Treatment groups were compared to controls using the Wilcoxon rank-sum test and P values <0.05 were considered significant. For the murine studies, survival of mice was analyzed using the Log Rank test, whereas differences in tissue fungal burden were analyzed by the Wilcoxon Rank Sum test using Graph pad Prism 6. P values of <0.05 were considered significant.

[4] = test system: A549 alveolar epithelial cells infected with R. delemar spores; assay: Measurement of host cell endocytosis of R. delemar by A549 cells (Uvitex differential fluorescence); format: cell-based, human; settings: for ability of A549 cells to endocytose R. delemar spores: Ahr inhibitor or Src inhibitor
Procedure: Measurement of host cell endocytosis. 12-mm glass coverslips were seeded with A549 alveolar epithelial cells. […] For controls, host cells will be incubated with DMSO (the solvent used to reconstitute the inhibitor) or 25 μg/ml mouse IgG antibody in parallel. Host cells were then infected with 2×10^5 R. delemar spores. After incubation for 3 h, cells were fixed in 3% paraformaldehyde and stained for 1 h with 1% Uvitex, which specifically binds to chitin in the fungal cell wall. After washing with PBS, coverslips were mounted on a glass slide with a drop of ProLong Gold anti-fade reagent (Molecular Probes) and sealed. The total number of cell-associated organisms (i.e. fungi adhering to the monolayer) per high-powered field were determined by phase-contrast microscopy. The same field will be examined by epifluorescence microscopy, and the number of brightly fluorescent, uninternalized fungi were determined. The number of endocytosed organisms was calculated by subtracting the number of fluorescent fungi from the total number of visible fungi. At least 400 organisms were counted per treatment group in at least 15 different fields per coverslip. Experiments were performed in duplicate or triplicate on at least two separate days.
12-mm glass coverslips in 12 well dishes will be seeded with A549 alveolar epithelial cells. Cells were then pre-treated 1 h with inhibitors. For controls, host cells were incubated with the appropriate amount of diluent used to reconstitute the inhibitor in parallel. Host cells were then infected with 2×10^6 Rdelemar. After incubation for 3 h, cells were fixed in 3% paraformaldehyde and stained for 1 h with 1% Uvitex, which specifically binds to chitin in the fungal cell wall. After washing with PBS, coverslips were mounted on a glass slide with a drop of ProLong Gold anti-fade reagent (Molecular Probes) and sealed. The total number of cell-associated organisms (i.e., fungi adhering to the monolayer) per high-powered field was determined by phase-contrast microscopy. The same exact field was examined by epifluorescence microscopy, and the number of brightly fluorescent, uninternalized fungi will be determined. The number of endocytosed organisms is calculated by subtracting the number of fluorescent organisms from the total number of visible organisms. At least 400 organisms were counted in at least 15 different fields per coverslip. Experiments were performed in duplicate on separate days. Data will be expressed as median f interquartile range.

[5] = test system: A549 cells infected with L. corymbifera; assay: L. corymbifera-induced damage of A549 cells (LDH assay); format: cell-based, human; settings: 25 μM Mifepristone overnight and/or 25 μM Gefitinib 1 h, 24 h infection (FIG. 14)
[6] = test system: A549 cells infected with C. bertholletiae; assay: C. bertholletiae-induced damage of A549 cells (LDH assay); format: cell-based, human; settings: 25 μM Mifepristone overnight and/or 25 μM Gefitinib 1 h, 24 h infection (FIG. 14)
[7] = test system: A549 cells infected with M. circinelloides; assay: M. circinelloides-induced damage of A549 cells (LDH assay); format: cell-based, human; settings: 25 μM Mifepristone overnight and/or 25 μM Gefitinib 1 h, 24 h infection (FIG. 14)
[8] = test system: A549 cells infected with R. oryzae; assay: R. oryzae-induced damage of A549 cells (LDH assay); format: cell-based, human; settings: 25 μM Mifepristone overnight and/or 25 μM Gefitinib 1 h, 24 h infection (FIG. 14)
Procedure: as §1, with “Cells were then pretreated for 1 h with inhibitor and infected with 1×10^6-2×10^6 germlings suspended in 150 μl F-12K plus 10% FBS.” left out

## COc1cc2ncnc(N3CCN(C(=O)Nc4ccc(Oc5ccccc5)cc4)CC3)c2cc1OC [PDGFR tyrosine kinase inhibitor III]
[1]
  R. delemar-induced damage of HUVECs: significantly reduces
[2]
  R. delemar-induced damage of A549 alveolar epithelial cells (LDH assay): modestly but significantly reduces

## EGF [epidermal growth factor, EGFR ligand]
[2]; A549 cells pretreated (and cotreated) with EGF 1 h prior to 24 h infection (FIG. 15)
  R. delemar-induced damage with EGF addition (LDH assay): no increase in damage was observed

## CC[C@@H]([C@H](C)O)n1ncn(-c2ccc(N3CCN(c4ccc(OC[C@@H]5CO[C@@](Cn6cncn6)(c6ccc(F)cc6F)C5)cc4)CC3)cc2)c1=O [posaconazole]
[3]; delayed treatment beginning 30 h post infection for 6 consecutive days, 10 mg/kg gefitinib, 20 mg/kg posaconazole or both
  18-day survival: 0%
[3]; treatment delayed for 30 h post infection, administered alone
  protection from pulmonary mucormycosis, delayed administration: did not

## Cc1ccccc1N=Nc1ccc(NC(=O)c2ccnn2C)c(C)c1 [CH-223191]
[4]
  ability of A549 cells to endocytose R. delemar spores: Neither of the inhibitors altered

## Src Kinase Inhibitor I I
[4]
  ability of A549 cells to endocytose R. delemar spores: Neither of the inhibitors altered

## COc1cc2ncnc(Nc3cccc(Cl)c3)c2cc1OC [AG1478]
[2]
  R. delemar-induced damage of A549 alveolar epithelial cells (LDH assay): greater reduction in damage

## CC#C[C@]1(O)CC[C@H]2[C@@H]3CCC4=CC(=O)CCC4=C3[C@@H](c3ccc(N(C)C)cc3)C[C@@]21C [Mifepristone]
[5]
  L. corymbifera-induced damage: significantly decreased
[2]; Example 3, Mifepristone 25 / Gefitinib 25, 24 h infection, vs vehicle (FIG. 12)
  R. delemar-induced damage of alveolar epithelial cells (LDH assay): decrease
[4]; Example 3, 25 μM Mifepristone overnight and/or 25 μM Gefitinib 1 h, 3 h infection (FIG. 13)
  R. delemar invasion / endocytosis: reduction
[6]
  C. bertholletiae-induced damage: a significant decrease in damage was not seen
[7]
  M. circinelloides-induced damage: a significant decrease in damage was not seen
[8]
  R. oryzae-induced damage: a significant decrease in damage was not seen

## COc1cc(/C=C(\C#N)C(N)=O)cc(CSc2nc3ccccc3s2)c1O [AG825]
[2]
  R. delemar-induced damage of A549 alveolar epithelial cells (LDH assay): greater reduction in damage
